These results are taken from US12624018B1, “Inhibitors of RIPK2 and medical uses thereof” (Odyssey Therapeutics, Inc., priority 2022, dated 2026).

One assay addresses T1, RIPK2 enzyme (Homo sapiens, UniProt O43353).
T1 construct: purchased Carna 09-128
The assay can be described thus: RIPK2 inhibition (ADP-Glo Kinase Assay). To be noted: RIPK2 5 nM, ATP 150 μM, MBP substrate, read-out: RIPK2 IC50. It is filed as biochemical. In a few lines:
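Swine MBP substrate; compound and 5 nM RIPK2 first mixed for 30 min at room temperature; buffer pH 7.5 HEPES 50 mM with 10 mM MgCl2, 2 mM DTT, 1 mM EGTA, Brij-35, BSA.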
In general terms: ADP-Glo turns the ADP formed in a reaction into a luminescent signal.

The test system of the next assay is human NOD2 signaling. In words: Inhibition of human NOD2 signaling in HEK-Blue-hNOD2 cells (L18-MDP stimulated, SEAP reporter). It is filed as cell-based. To be noted: NOD2 ligand stimulation, SEAP reporter, read-out: hNOD2 IC50. In a few lines: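 Read-out is SEAP absorbance at 620 nm after 3 h QUANTI-Blue development of supernatant from HEK293 cells carrying NOD2 and a SEAP reporter (12500/well). Cells got compound (10 points, 3-fold dilutions) and 0.5 ng/mL L18-MDP for 24 h at 37 °C; percent inhibition vs stimulated/unstimulated controls, 4-parameter IC50.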

Assay [1] concerns TNF-alpha secretion in human whole blood. In words: Inhibition of TNF-alpha secretion in human whole blood (IFN-gamma primed, L18-MDP stimulated). The settings on record: L18-MDP 100 ng/mL, read-out: Human Whole Blood TNFα IC50. It is filed as cell-based. The procedure:
Materials: Assay medium consisted of RPMI 1640 medium (catalogue number: 11875119) and 10% heat inactivated FBS (Cytvia). U-PLEX Biomarker Assay (cat #K15067L-4) to detect levels of TNF-alpha was purchased from Meso Scale Discovery. Heparinized whole blood from healthy donors/volunteers was obtained through Research Blood Components, LLC.
Test compounds were prepared into a 10 mM DMSO solution and serially diluted into 9 points using a 3-fold dilution in a 96 well plate. A 10× working stock solution of recombinant human IFN-gamma (final concentration of 10 ng/mL) was prepared in assay medium and used to prepare a 10× solution of test compound. 20 μL of 10×IFN-gamma and test compound (or DMSO control) was added to a 96-well plate. 160 μL of heparinized whole blood obtained from healthy donors was dispensed into individual wells of the 96-well plate and placed on a plate shaker (150 rpm) and incubated for 60 min at 37° C. in a CO2 incubator. Subsequently, 20 μL of L18-MDP (final concentration of 100 ng/mL) was added to the appropriate wells and further incubated for 16 hours on a plate shaker (150 rpm) at 37° C. in a CO2 incubator. The final concentration of DMSO was 0.05% (v/v) in all wells. After incubation, 100 μL of DPBS was added per well, mixed by shaking at 500 rpm for 2 minutes, followed by centrifugation (400×g for 10 minutes) and collection of supernatants. TNF-alpha in supernatants was measured using MSD immunoassay (MesoScale Discovery). 4-parametric curve fit was used to determine the test compound concentration that results in 50% reduction of TNF-alpha concentration in supernatant relative to assay controls.

In assay [2] the target is T2, RIPK2 and XIAP protein-protein interaction (Homo sapiens, UniProt O43353).
T2 construct: the N-terminus of full-length RIPK2 was appended with the HaloTag fusion protein; expressed in transfected cells; host or cells: HEK293T
In words: Inhibition of the interaction of RIPK2 with XIAP (NanoBRET in HEK293T cells). It is filed as cell-based. The settings on record: RIPK2 HaloTag / XIAP NanoLuc, read-out: NanoBRET Scaffolding IC50. In outline:
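HEK293T cells transiently co-transfected with HaloTag-RIPK2 (N-terminal) and XIAP-NanoLuc (C-terminal) full-length fusions, grown 24 h at 37° C. in Opti-MEM with 4% FBS. Compounds tested as 10-point 3-fold dilutions; NanoBRET ratio taken as 618 nm acceptor over 460 nm donor emission.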
In general terms: Bioluminescence resonance energy transfer reports proximity on the nanometre scale.

Setting [3] is: Homo sapiens, HEK-Blue hNOD2, HEK-Blue-hNOD2 cells.

pIC50: −log10 of the molar value. Read-outs that look alike come from different tables or passages of the source.

T1 sequence (O43353 1-299 limits assumed): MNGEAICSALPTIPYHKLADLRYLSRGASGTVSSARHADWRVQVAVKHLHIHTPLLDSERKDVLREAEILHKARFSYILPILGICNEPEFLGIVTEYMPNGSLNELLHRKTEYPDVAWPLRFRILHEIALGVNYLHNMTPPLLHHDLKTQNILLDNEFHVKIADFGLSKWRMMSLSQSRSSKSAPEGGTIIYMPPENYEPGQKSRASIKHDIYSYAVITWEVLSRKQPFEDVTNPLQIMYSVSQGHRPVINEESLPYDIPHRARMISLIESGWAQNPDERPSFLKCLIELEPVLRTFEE
T2 sequence (O43353 whole entry, the tested form may be a part): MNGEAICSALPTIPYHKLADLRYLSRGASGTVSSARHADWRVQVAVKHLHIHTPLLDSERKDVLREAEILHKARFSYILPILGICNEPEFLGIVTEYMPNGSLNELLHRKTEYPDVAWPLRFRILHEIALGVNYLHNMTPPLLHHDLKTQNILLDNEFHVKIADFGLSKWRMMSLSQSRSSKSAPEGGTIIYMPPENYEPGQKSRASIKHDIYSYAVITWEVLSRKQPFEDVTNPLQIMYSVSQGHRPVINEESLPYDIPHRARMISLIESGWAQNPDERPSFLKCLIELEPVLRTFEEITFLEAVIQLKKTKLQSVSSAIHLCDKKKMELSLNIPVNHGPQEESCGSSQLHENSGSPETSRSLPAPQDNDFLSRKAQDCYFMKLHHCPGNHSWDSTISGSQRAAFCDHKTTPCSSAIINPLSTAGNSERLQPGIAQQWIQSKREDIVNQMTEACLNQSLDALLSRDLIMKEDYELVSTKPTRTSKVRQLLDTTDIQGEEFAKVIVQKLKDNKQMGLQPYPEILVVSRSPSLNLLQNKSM

In the case of `Cc1cc(CC(=O)Nc2cnn(C(C)(C)C)c2)ccc1Oc1ccnc2ccc(S(=N)(=O)C3CC3)cc12` (single isomer, unassigned) [Compound 543, N-(1-(tert-butyl)-1H-pyrazol-4-yl)-2-(4-((6-(cyclopropanesul-fonimidoyl)quinolin-4-yl)oxy)-3-methylphenyl) acetamide], the pIC50 at RIPK2 enzyme is above 8.60; in the assay on human NOD2 signaling (setting [3]), 8.92; in assay [1] (Homo sapiens, 16 h), 8.52; in assay [2], 7.11.

On to `Cc1cc(CC(=O)Nc2cnn(C(C)(C)C)c2)ccc1Oc1ccnc2ccc(S(=N)(=O)C3CC3)cc12` (single isomer, unassigned) [Compound 544, N-(1-(tert-butyl)-1H-pyrazol-4-yl)-2-(4-((6-(cyclopropanesul-fonimidoyl)quinolin-4-yl)oxy)-3-methylphenyl) acetamide], for which the pIC50 was above 8.60 at RIPK2 enzyme, 8.70 in the assay with human NOD2 signaling (HEK-Blue-hNOD2 cells), 8.35 in assay [1] (16 hours) and 6.91 in assay [2].

Regarding `CCS(=N)(=O)c1ccc2nccc(Oc3ccc(CC(=O)Nc4cnn(C(C)(C)C)c4)cc3C)c2c1` (single isomer, unassigned) [Compound 545, N-(1-(tert-butyl)-1H-pyrazol-4-yl)-2-(4-((6-(ethylsulfonimidoyl)quinolin-4-yl)oxy)-3-methylphenyl) acetamide], the pIC50 was above 8.60 on RIPK2 enzyme; 8.74 with human NOD2 signaling (setting [3]); 8.23 in assay [1] (Homo sapiens, 16 h); 6.74 in assay [2].

For the molecule `CCS(=N)(=O)c1ccc2nccc(Oc3ccc(CC(=O)Nc4cnn(C(C)(C)C)c4)cc3C)c2c1` (single isomer, unassigned) [Compound 546, N-(1-(tert-butyl)-1H-pyrazol-4-yl)-2-(4-((6-(ethylsulfonimidoyl)quinolin-4-yl)oxy)-3-methylphenyl) acetamide], the pIC50 is above 8.60 at RIPK2 enzyme, 8.85 with human NOD2 signaling (HEK-Blue-hNOD2 cells), 8.40 in assay [1] (16 hours) and 6.69 in assay [2].

Turning to `COc1ccc2ncnc(Oc3ccc(CC(=O)Nc4cnn(C(C)(C)C)c4)c(F)c3)c2c1` [Compound 8, N-(1-(tert-butyl)-1H-pyrazol-4-yl)-2-(2-fluoro-4-((6-methoxy-quinazolin-4-yl)oxy)phenyl) acetamide], the pIC50 on RIPK2 enzyme is 8.12; in the assay on human NOD2 signaling (setting [3]), 7.94; in assay [1] (Homo sapiens, 16 h) it was 6.99; in assay [2] it was 8.22.

On to `CN1CCC(Oc2ccc3ncnc(Oc4cnc(CC(=O)Nc5cnn(C(C)(C)C)c5)c(F)c4)c3c2)CC1` [Compound 20, N-(1-(tert-butyl)-1H-pyrazol-4-yl)-2-(3-fluoro-5-((6-((1-methylpiperidin-4-yl)oxy)quinazolin-4-yl)oxy)pyridin-2-yl)acetamide], for which the pIC50 at RIPK2 enzyme is 7.98; with human NOD2 signaling (setting [3]), 7.66; in assay [1] (Homo sapiens, 16 h), 7.92; in assay [2], 6.84.

For the molecule `CC(C)(C)n1cc(NC(=O)Cc2ccc(Oc3ccnc4ccc(S(C)(=N)=O)cc34)cc2F)cn1` (stereo not shown) [Compound 43, N-(1-(tert-butyl)-1H-pyrazol-4-yl)-2-(2-fluoro-4-((6-(S-methylsulfonimidoyl)quinolin-4-yl)oxy)phenyl)acetamide], the pIC50 at RIPK2 enzyme was 8.32; with human NOD2 signaling (setting [3]) it was 7.41; in assay [1] (Homo sapiens, 16 h) it was 8.30; in assay [2] it was 6.66.

For `CN1CCC(Oc2ccc3nccc(Oc4cnc(CC(=O)Nc5cnn(C(C)(C)C)c5)c(F)c4)c3c2)CC1` [Compound 78, N-(1-(tert-butyl)-1H-pyrazol-4-yl)-2-(3-fluoro-5-((6-((1-methylpiperidin-4-yl)oxy)quinolin-4-yl)oxy)pyridin-2-yl)acetamide], the pIC50 on RIPK2 enzyme is 7.87; in the assay with human NOD2 signaling (setting [3]), 7.49; in assay [1] (Homo sapiens, 16 h), 8.15; in assay [2], 7.43.

Turning to `Cc1cc(CC(=O)Nc2cnn(C(C)(C)C)c2)ccc1Oc1ccnc2ccc(OC3CCN(C)CC3)cc12` [Compound 82, N-(1-(tert-butyl)-1H-pyrazol-4-yl)-2-(3-methyl-4-((6-((1-methyl-piperidin-4-yl)oxy)quinolin-4-yl)oxy)phenyl) acetamide], the pIC50 on RIPK2 enzyme is above 8.60; in the assay on human NOD2 signaling (HEK-Blue-hNOD2 cells), 8.72; in assay [1] (16 hours), 8.40; in assay [2], 8.22.

`Cc1cc(CC(=O)Nc2cnn(C(C)(C)C)c2)ccc1Oc1ncnc2ccc(OC3CCN(C)CC3)cc12` [Compound 84, N-(1-(tert-butyl)-1H-pyrazol-4-yl)-2-(3-methyl-4-((6-((1-methyl-piperidin-4-yl)oxy)quinazolin-4-yl)oxy)phenyl) acetamide]: the pIC50 was 8.03 on RIPK2 enzyme, 7.72 in the assay with human NOD2 signaling (HEK-Blue-hNOD2 cells), 8.40 in assay [1] (16 hours) and 7.43 in assay [2].

Regarding `CC(C)(C)n1cc(NC(=O)Cc2ccc(Oc3ccnc4ccc(S(C)(=O)=O)cc34)c(C(F)F)c2)cn1` [Compound 92, N-(1-(tert-butyl)-1H-pyrazol-4-yl)-2-(3-(difluoromethyl)-4-((6-(methylsulfonyl)quinolin-4-yl)oxy)phenyl)acetamide], the pIC50 at RIPK2 enzyme was above 8.60; in the assay with human NOD2 signaling (setting [3]) it was 8.18; in assay [1] (Homo sapiens, 16 h), 7.40; in assay [2] it was 6.88.

Turning to `Cc1c(Oc2ccnc3ccc(S(=O)(=O)C4CC4)cc23)ccc(CC(=O)Nc2cnn(C(C)(C)C)c2)c1F` [Compound 174, N-(1-(tert-butyl)-1H-pyrazol-4-yl)-2-(4-((6-(cyclopropylsulfonyl)quinolin-4-yl)oxy)-2-fluoro-3-methylphenyl)acetamide], the pIC50 is above 8.60 on RIPK2 enzyme; 9.70 in the assay with human NOD2 signaling (setting [3]); 8.70 in assay [1] (Homo sapiens, 16 h); 8.30 in assay [2].

In the case of `Cc1cc(CC(=O)Nc2cnn(C(C)(C)C)c2)ccc1Oc1ccnc2ccc(P(C)(C)=O)cc12` [Compound 179, N-(1-(tert-butyl)-1H-pyrazol-4-yl)-2-(4-((6-(dimethylphosphoryl)quinolin-4-yl)oxy)-3-methylphenyl) acetamide], the pIC50 at RIPK2 enzyme is above 8.60; in the assay with human NOD2 signaling (setting [3]) it was 7.42; in assay [1] (Homo sapiens, 16 h), 8.22; in assay [2] it was 6.33.

As for `Cc1cc(CC(=O)Nc2noc(C(C)(C)C)n2)ccc1Oc1ccnc2ccc(S(C)(=O)=O)cc12` [Compound 182, N-(5-(tert-butyl)-1,2,4-oxadiazol-3-yl)-2-(3-methyl-4-((6-(methylsulfonyl)quinolin-4-yl)oxy)phenyl) acetamide], the pIC50 is above 8.60 on RIPK2 enzyme; 8.70 in the assay with human NOD2 signaling (setting [3]); 7.85 in assay [1] (Homo sapiens, 16 h); 7.74 in assay [2].

On to `Cc1cc(CC(=O)Nc2cnn(C34CC(C3)C4)c2)ccc1Oc1ccnc2ccc(S(C)(=O)=O)cc12` [Compound 239, N-(1-(bicyclo[1.1.1]pentan-1-yl)-1H-pyrazol-4-yl)-2-(3-methyl-4-((6-(methylsulfonyl)quinolin-4-yl)oxy)phenyl)acetamide], for which the pIC50 is above 8.60 at RIPK2 enzyme; 8.54 in the assay with human NOD2 signaling (setting [3]); 7.43 in assay [1] (Homo sapiens, 16 h); 7.70 in assay [2].

Regarding `Cc1cc(CC(=O)Nc2cnn(C(C)(C)C)c2)ccc1Oc1ncnc2ccc(CN3CCNCC3)cc12` [Compound 253, N-(1-(tert-butyl)-1H-pyrazol-4-yl)-2-(3-methyl-4-((6-(piperazin-1-ylmethyl)quinazolin-4-yl)oxy)phenyl)acetamide], the pIC50 on RIPK2 enzyme was above 8.60; with human NOD2 signaling (setting [3]) it was 8.14; in assay [1] (Homo sapiens, 16 h) it was 8.15; in assay [2] it was 6.76.
